Experimental findings from patent publication US9783532B2, “Molecules having certain pesticidal utilities, and intermediates, compositions, and processes related thereto” (Dow AgroSciences LLC, priority 2013, dated 2017) are described below.

Common to all, as to format: in vivo
Data set [1] has as its system Beet Armyworm (Spodoptera exigua) ("BAW"). Nature of the data set: Bioassay on beet armyworm (BAW), 128-well diet tray assay. As to conditions: for mortality at 50 µg/cm2: 168 h, 50 μg/cm^2 on artificial diet, second instar BAW larvae, 25° C., five to seven days, average of eight wells, read-out: BAW % Control (or Mortality) rating; for pest or weed control at 50 µg/cm2: Table ABC (FB), activity rating class, read-out: BAW (Biological Results, Insect species). The essentials: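 Second-instar larvae (one to five per well) were placed on artificial diet surface-treated with 50 μg/cm^2 compound applied in 90:10 acetone-water and dried, eight wells per compound. Held at 25° C., 14:10 light-dark for five to seven days; percent mortality was scored per well and averaged over the eight wells.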

Data set [2] deals with Cabbage Looper (Trichoplusia ni) ("CL"). Nature of the data set: Bioassay on cabbage looper (CL), 128-well diet tray assay. Conditions: for mortality at 50 µg/cm2: 168 h, 50 μg/cm^2 on artificial diet, second instar CL larvae, 25° C., five to seven days, average of eight wells, read-out: CL % Control (or Mortality) rating; for pest or weed control at 50 µg/cm2: Table ABC (FB), activity rating class, read-out: CL (Biological Results, Insect species). The essentials:
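Second-instar larvae (one to five per well) placed on artificial diet surface-treated with 50 μg/cm^2 compound in 90:10 acetone-water, dried before infestation. Held 25 °C, 14:10 light-dark for five to seven days; percent mortality scored per well and averaged over eight wells.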

The subject of data set [3] is Green Peach Aphid ("GPA") (Myzus persicae). Nature of the data set: Bioassay on green peach aphid (GPA), foliar spray on cabbage seedlings. As to conditions: for mortality at 200 ppm: Myzus persicae, foliar, 72 h, 200 ppm spray on infested cabbage seedlings, three days, Abbott corrected % control, read-out: GPA % Control (or Mortality) rating; for GPA (Biological Results, Insect species): Table ABC (FB), activity rating class. The method, then: Certain molecules disclosed in this document were tested against GPA using procedures described in the following example. In the reporting of the results, the “GPA Rating Table” was used (See Table Section).
Cabbage seedlings grown in 3-inch pots, with 2-3 small (3-5 cm) true leaves, were used as test substrate. The seedlings were infested with 20-50 GPA (wingless adult and nymph stages) one day prior to chemical application. Four pots with individual seedlings were used for each treatment. Test compounds (2 mg) were dissolved in 2 mL of acetone/methanol (1:1) solvent, forming stock solutions of 1000 ppm test compound. The stock solutions were diluted 5× with 0.025% Tween 20 in water to obtain the solution at 200 ppm test compound. A hand-held aspirator-type sprayer was used for spraying a solution to both sides of […] leaves until runoff. Reference plants (solvent check) were sprayed with the diluent only containing 20% by volume of acetone/methanol (1:1) solvent. Treated plants were held in a holding room for three days at approximately 25° C. and ambient relative humidity (RH) prior to grading. Evaluation was conducted by counting the number of live aphids per plant under a microscope. Percent Control was measured by using Abbott's correction formula (W. S. Abbott, “A Method of Computing the Effectiveness of an Insecticide” J. Econ. Entomol. 18 (1925), pp. 265-267) as follows. Corrected % Control=100*(X−Y)/X • where • X=No. of live aphids on solvent check plants and • Y=No. of live aphids on treated plants

Data set [4] deals with Yellow Fever Mosquito "YFM" (Aedes aegypti). As to conditions: for YFM % Control (or Mortality) rating: about 1 day-old larvae, 96-well plate, room temperature, 3 days; for YFM (Biological Results, Insect species): Table ABC (FB), activity rating class. A digest of the protocol:
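About 1 day-old Aedes aegypti larvae in liver-powder water added to wells holding compound diluted from 4000 ppm DMSO stock with 90:10 water:acetone, 6 replicate plates. Plates kept covered at room temperature for 3 days. Wells scored for mortality and reported as rating categories.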

Structures are written as SMILES.

On to `CCc1ccccc1N1C(=O)CS/C1=N\C(=O)NCCCCc1ccc(-c2ncn(-c3ccc(OC(F)(F)F)cc3)n2)cc1` [P145, P522, (Z)-1-(3-(2-ethylphenyl)-4-oxothiazolidin-2-ylidene)-3-(4-(4-(1-(4-(trifluoromethoxy)phenyl)-1H-1,2,4-triazol-3-yl)phenyl)butyl)urea], for which the mortality at 50 µg/cm2 in data set [1] and in data set [2] was 50 to 100% in each case. Besides, the mortality at 200 ppm in data set [3] was determined as 0%. The “YFM % Control (or Mortality) rating” value in data set [4] is on record as “A (80-100)”.
As to `Cc1ccc(C(C)C)c(N2C(=O)CS/C2=N\C(=O)NCC(C)c2ccc(-c3ncn(-c4ccc(OC(F)(F)F)cc4)n3)cc2)c1` (centres unmarked) [F10, (Z)-1-(3-(2-isopropyl-5-methylphenyl)-4-oxothiazolidin-2-ylidene)-3-(2-(4-(1-(4-(trifluoromethoxy)phenyl)-1H-1,2,4-triazol-3-yl)phenyl)propyl)urea], the mortality at 50 µg/cm2 in data set [1] and in data set [2] was 50 to 100% each time. Moreover, in data set [3], the mortality at 200 ppm is 0 to 80%. Besides, the “YFM % Control (or Mortality) rating” value in data set [4] is listed as “A (80-100)”.
Regarding `CC(C)c1ccccc1NC(=S)NC(=O)NCCc1ccc(-c2ncn(-c3ccc(OC(F)(F)F)cc3)n2)cc1` [F2, N-[2-isopropylphenyl]-N-[2-(4-{1-[4-(trifluoromethoxy)phenyl]-1H-1,2,4-triazol-3-yl}phenyl)ethyl]dicarbonimidothioic diamide], the mortality at 50 µg/cm2 in data set [1] and in data set [2] was 50 to 100% each time. Besides, the mortality at 200 ppm in data set [3] was in the range of 0 to 80%. Moreover, the “YFM % Control (or Mortality) rating” value in data set [4] was “A (80-100)”.
Regarding `CCC(Cc1ccc(-c2ncn(-c3ccc(OC(F)(F)F)cc3)n2)cc1)NC(=O)/N=C1\SCC(=O)N1c1cc(Cl)ccc1C(C)C` (centres unmarked) [FB44, (Z)-1-(3-(5-chloro-2-isopropylphenyl)-4-oxothiazolidin-2-ylidene)-3-(1-(4-(1-(4-(trifluoromethoxy)phenyl)-1H-1,2,4-triazol-3-yl)phenyl)butan-2-yl)urea], the pest or weed control at 50 µg/cm2 in data set [1] and in data set [2] was 50 to 100% each time. In addition, the “GPA (Biological Results, Insect species)” value in data set [3] was “B (More than 0-Less than 80)”. In data set [4], the “YFM (Biological Results, Insect species)” value is given as “A (80-100)”.
With `Cc1ccc(C(C)C)c(N2C(=O)CS/C2=N\C(=O)NCCc2ccc(-c3ncn(-c4ccc(C(F)(F)F)cc4)n3)cc2)c1` [P52, (Z)-1-(3-(2-isopropyl-5-methylphenyl)-4-oxothiazolidin-2-ylidene)-3-(4-(1-(4-(trifluoromethyl)phenyl)-1H-1,2,4-triazol-3-yl)phenethyl)urea], the mortality at 50 µg/cm2 in data set [1] and in data set [2] was 50 to 100% each time. The mortality at 200 ppm in data set [3] is 0%. For the same compound, in data set [4], the “YFM % Control (or Mortality) rating” value is “A (80-100)”.
As for `Cc1ccc(C(C)C)c(N2C(=O)CS/C2=N\C(=O)NCCc2ccc(-c3ncn(-c4ccc(OC(F)(F)C(F)(F)F)cc4)n3)cc2)c1` [F9, (Z)-1-(3-(2-isopropyl-5-methylphenyl)-4-oxothiazolidin-2-ylidene)-3-(4-(1-(4-(perfluoroethoxy)phenyl)-1H-1,2,4-triazol-3-yl)phenethyl)urea], the mortality at 50 µg/cm2 in data set [1] and in data set [2] was 50 to 100% throughout. The mortality at 200 ppm in data set [3] stood at 0%. Besides, the “YFM % Control (or Mortality) rating” value in data set [4] is “A (80-100)”.
As to `COc1ccc(C(C)C)c(N2C(=O)CS/C2=N\C(=O)NCCc2ccc(-c3ncn(-c4ccc(OC(F)(F)F)cc4)n3)cc2)c1` [F6, (Z)-1-(3-(2-isopropyl-5-methoxyphenyl)-4-oxothiazolidin-2-ylidene)-3-(4-(1-(4-(trifluoromethoxy)phenyl)-1H-1,2,4-triazol-3-yl)phenethyl)urea], the mortality at 50 µg/cm2 in data set [1] and in data set [2] was 50 to 100% throughout. For the same compound, the mortality at 200 ppm in data set [3] lay in the range of 0 to 80%. Also, the “YFM % Control (or Mortality) rating” value in data set [4] was “A (80-100)”.
As for `CC(Cc1ccc(-c2ncn(-c3ccc(OC(F)(F)F)cc3)n2)cc1)NC(=O)/N=C1\SCC(=O)N1c1ccccc1C(C)C` (centres unmarked) [F7, (Z)-1-(3-(2-isopropylphenyl)-4-oxothiazolidin-2-ylidene)-3-(1-(4-(1-(4-(trifluoromethoxy)phenyl)-1H-1,2,4-triazol-3-yl)phenyl)propan-2-yl)urea], the mortality at 50 µg/cm2 in data set [1] and in data set [2] was 50 to 100% in each case. In addition, the mortality at 200 ppm in data set [3] lay within 0 to 80%. Moreover, in data set [4], the “YFM % Control (or Mortality) rating” value was “A (80-100)”.
For `Cc1ccc(C(C)C)c(N2C(=O)CS/C2=N\C(=O)NCCc2ccc(-c3ncn(-c4ccc(OC(F)(F)F)cc4)n3)cc2)c1` [F5, (Z)-1-(3-(2-isopropropyl-5-methylphenyl)-4-oxothiazolidin-2-ylidene)-3-(4-(1-(4-(trifluoromethoxy)phenyl)-1H-1,2,4-triazol-3-yl)phenethyl)urea], the mortality at 50 µg/cm2 in data set [1] and in data set [2] was 50 to 100% each time. For the same compound, in data set [3], the mortality at 200 ppm was 80 to 100%. The “YFM % Control (or Mortality) rating” value in data set [4] was “A (80-100)”.
As to `CC(C)c1ccccc1NC(=S)NC(=O)NCc1ccc(-c2ncn(-c3ccc(OC(F)(F)F)cc3)n2)cc1` [F14, N-[2-(propan-2-yl)phenyl]-N′-(4-{1-[4-(trifluoromethoxy)phenyl]-1H-1,2,4-triazol-3-yl}benzyl)dicarbonimidothioic diamide], the mortality at 50 µg/cm2 in data set [1] and in data set [2] was 50 to 100% in each case. In data set [3], the mortality at 200 ppm was determined as 0%. Also, the “YFM % Control (or Mortality) rating” value in data set [4] is listed as “A (80-100)”.
On to `Cc1ccc(C(C)C)c(NC(=S)NC(=O)NCCCc2ccc(-c3ncn(-c4ccc(OC(F)(F)F)cc4)n3)cc2)c1` [F21, 1-[(2-isopropyl-5-methyl-phenyl)carbamothioyl]-3-[3-[4-[1-[4-(trifluoromethoxy)phenyl]-1H-1,2,4-triazol-3-yl]phenyl]propyl]urea], for which the mortality at 50 µg/cm2 in data set [1] and in data set [2] was 50 to 100% in each case. Also, the mortality at 200 ppm in data set [3] is 0%. The “YFM % Control (or Mortality) rating” value in data set [4] is listed as “A (80-100)”.
For `CC(C)c1cc(F)ccc1N1C(=O)CS/C1=N\C(=O)NCCc1ccc(-c2ncn(-c3ccc(OC(F)(F)F)cc3)n2)cc1` [P28, (Z)-1-(3-(4-fluoro-2-isopropylphenyl)-4-oxothiazolidin-2-ylidene)-3-(4-(1-(4-(trifluoromethoxy)phenyl)-1H-1,2,4-triazol-3-yl)phenethyl)urea], the mortality at 50 µg/cm2 in data set [1] and in data set [2] was 50 to 100% throughout. Moreover, the mortality at 200 ppm in data set [3] is 0%. In data set [4], the “YFM % Control (or Mortality) rating” value is “A (80-100)”.
`Cc1ccc(C(C)C)c(N2C(=O)CS/C2=N\C(=O)NCCCCc2ccc(-c3ncn(-c4ccc(C(F)(F)F)cc4)n3)cc2)c1` [P159, (Z)-1-(3-(2-isopropyl-5-methylphenyl)-4-oxothiazolidin-2-ylidene)-34-(4-(4-(1-(4-(trifluoromethyl)phenyl)-1H-1,2,4-triazol-3-yl)phenyl)butyl)urea]: the mortality at 50 µg/cm2 in data set [1] and in data set [2] was 50 to 100% in each case. The mortality at 200 ppm in data set [3] fell in the range of 0 to 80%. The “YFM % Control (or Mortality) rating” value in data set [4] is “A (80-100)”.
As to `CCC(Cc1ccc(-c2ncn(-c3ccc(OC(F)(F)F)cc3)n2)cc1)NC(=O)/N=C1\SCC(=O)N1c1cc(C)ccc1C(C)C` (centres unmarked) [FB43, (Z)-1-(3-(2-isopropyl-5-methylphenyl)-4-oxothiazolidin-2-ylidene)-3-(1-(4-(1-(4-(trifluoromethoxy)phenyl)-1H-1,2,4-triazol-3-yl)phenyl)butan-2-yl)urea], the pest or weed control at 50 µg/cm2 in data set [1] and in data set [2] was 50 to 100% each time. Moreover, the “GPA (Biological Results, Insect species)” value in data set [3] is recorded as “B (More than 0-Less than 80)”. Moreover, in data set [4], the “YFM (Biological Results, Insect species)” value is listed as “A (80-100)”.
As for `Cc1ccc(C(C)C)c(N2C(=O)CS/C2=N\C(=O)NC(C)Cc2ccc(-c3ncn(-c4ccc(OC(F)(F)F)cc4)n3)cc2)c1` (centres unmarked) [F8, (Z)-1-(3-(2-isopropropyl-5-methylphenyl)-4-oxothiazolidin-2-ylidene)-3-(1-(4-(1-(4-(trifluoromethoxy)phenyl)-1H-1,2,4-triazol-3-yl)phenyl)propan-2-yl)urea], the mortality at 50 µg/cm2 in data set [1] and in data set [2] was 50 to 100% each time. The mortality at 200 ppm in data set [3] was 0%.

For orientation: mortality means the share of the test organisms that died.
